Experimental findings from patent US7799924B2, “Substituted homopiperidine, piperidine or pyrrolidine derivatives” (High Point Pharmaceuticals, LLC, priority 2002, dated 2010) are described below.

Consider `CN1CCC(c2noc(-c3ccc(-c4ccccc4)cc3)n2)CC1.CS(=O)(=O)O`, for which the melting point fell in the range of 222 to 224 °C.
